Source: PMC11333205, “Pyridylpiperazine-based carbodithioates as urease inhibitors: synthesis and biological evaluation” (Frontiers in Chemistry, 2024)
Read-outs that look alike come from different tables or passages of the source.

Tests used:
[1] = target: T1, urease (Canavalia ensiformis, UniProt P07374); experiment: biochemical; format: biochemical
Procedure: The inhibitory potential of the compounds was assessed using a slightly modified indophenol method ([Hina et al., 2023]). In 96-well plates, a mixture consisting of 50 µL urease, 30 µL buffer solution (phosphate buffer, sodium salicylate, sodium nitroprusside, and EDTA, pH 8.0), 10 µL urea substrate (100 mM), and 10 µL of the test compound (1 mM) was subjected to pre-incubation for 10 min at room temperature. Subsequently, an alkali reagent (70 µL) was promptly introduced into each well. Then, 30 min later, the absorbance at 630 nm for all samples was measured using a BioTek ELx800 instrument from BioTek Instruments, Inc., United States. The data were collected for all experiments performed in triplicate, and the percentage of inhibitory activities was assessed utilizing the following formula: Percentage of inhibition=100 – Absorbance of compound/Absorbance of control × 100.

[2] = target: T1, urease; experiment: Kinetic study (Lineweaver–Burk / Michaelis–Menten) of urease inhibition; format: biochemical; conditions: Lineweaver–Burk plots; 5j at 0, 2.55, 5.11, 7.65 μM
From the text: By using Lineweaver–Burk graphs, we determined the mechanism of action of the leading compound 5j against urease. We evaluated the effect of the inhibitor on K m and V max using reciprocal 1/S and 1/V of the product concentration and calculated the inhibition type. The slope K m /V max of each line was schemed against different concentrations of the substrate and inhibitor. In kinetic studies of the potent compound, different concentrations of the compound and substrate were used. Different concentrations of 1 mM 5j were 0, 2.55, 5.11, and 7.65 μM, and different concentrations of the substrate were 0, 25, 50, 100, and 150 mM.
The type of inhibitory action was determined by using […] different concentrations of the substrate (0, 2.5, 5, 10, and 15 mM) in the absence and presence of different concentrations of inhibitor 5j (0, 2.55, 5.11, and 7.65 μM).

[3] = target: T1, urease; conditions: read-out: IC50 (urease); Figure 1; ref Khan et al., 2024; cited from earlier work

T1 sequence (P07374 whole entry, looked up): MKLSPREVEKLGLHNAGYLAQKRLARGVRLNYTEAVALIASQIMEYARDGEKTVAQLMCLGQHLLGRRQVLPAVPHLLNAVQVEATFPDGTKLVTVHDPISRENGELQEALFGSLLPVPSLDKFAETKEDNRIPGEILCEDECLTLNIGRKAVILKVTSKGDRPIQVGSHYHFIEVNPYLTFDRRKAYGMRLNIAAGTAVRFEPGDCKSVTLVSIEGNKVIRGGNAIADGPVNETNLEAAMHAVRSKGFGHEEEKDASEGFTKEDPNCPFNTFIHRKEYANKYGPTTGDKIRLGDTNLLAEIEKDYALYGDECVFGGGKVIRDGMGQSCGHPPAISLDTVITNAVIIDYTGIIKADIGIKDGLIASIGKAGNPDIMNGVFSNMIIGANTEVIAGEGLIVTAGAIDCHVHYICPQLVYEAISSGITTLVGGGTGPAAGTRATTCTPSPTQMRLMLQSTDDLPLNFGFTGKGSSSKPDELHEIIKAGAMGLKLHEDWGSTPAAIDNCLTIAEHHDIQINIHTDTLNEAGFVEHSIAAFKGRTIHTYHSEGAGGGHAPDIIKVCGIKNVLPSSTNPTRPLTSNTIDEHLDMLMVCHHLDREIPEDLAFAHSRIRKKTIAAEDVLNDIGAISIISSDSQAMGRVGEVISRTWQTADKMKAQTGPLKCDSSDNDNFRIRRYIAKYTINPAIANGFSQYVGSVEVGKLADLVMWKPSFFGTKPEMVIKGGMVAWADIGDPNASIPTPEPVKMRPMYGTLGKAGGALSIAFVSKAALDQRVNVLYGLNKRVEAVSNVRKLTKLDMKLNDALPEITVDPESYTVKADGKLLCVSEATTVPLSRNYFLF

SMILES	IC50 [1]	melting point	type of inhibition against urease [2]	IC50 [3]	IC50 ([1]; indophenol method, urea substrate 100 mM, pH 8.0, triplicate, read-out: Urease inhibition: IC50 ± SEM)
O=C(CSC(=S)N1CCN(c2ncccc2[N+](=O)[O-])CC1)Nc1ccccc1 [Compound 5a, 2-Oxo-2-(phenylamino)ethyl 4-(3-nitropyridin-2-yl)piperazine-1-carbodithioate]	18.7 ± 0.52 µM	119 to 120 °C			
O=C(CSC(=S)N1CCN(c2ncccc2[N+](=O)[O-])CC1)Nc1ccccc1Cl [Compound 5b, 2-((2-Chlorophenyl)amino)-2-oxoethyl 4-(3-nitropyridin-2-yl)piperazine-1-carbodithioate]	41.03 ± 0.23 µM	114 to 116 °C			
O=C(CSC(=S)N1CCN(c2ncccc2[N+](=O)[O-])CC1)Nc1cccc(Cl)c1 [Compound 5c, 2-((3-Chlorophenyl)amino)-2-oxoethyl 4-(3-nitropyridin-2-yl)piperazine-1-carbodithioate]	37.33 ± 0.19 µM	121 to 122 °C			
O=C(CSC(=S)N1CCN(c2ncccc2[N+](=O)[O-])CC1)Nc1ccc(Cl)cc1 [Compound 5d, 2-((4-Chlorophenyl)amino)-2-oxoethyl 4-(3-nitropyridin-2-yl)piperazine-1-carbodithioate]	55.69 ± 0.2 µM	143 to 144 °C			
O=C(CSC(=S)N1CCN(c2ncccc2[N+](=O)[O-])CC1)Nc1cccc(Br)c1 [Compound 5e, 2-((3-Bromophenyl)amino)-2-oxoethyl 4-(3-nitropyridin-2-yl)piperazine-1-carbodithioate]	32.53 ± 0.2 µM	110 to 112 °C			
O=C(CSC(=S)N1CCN(c2ncccc2[N+](=O)[O-])CC1)Nc1ccc(Br)cc1 [Compound 5f, 2-((4-Bromophenyl)amino)-2-oxoethyl 4-(3-nitropyridin-2-yl)piperazine-1-carbodithioate]	21.3 ± 0.7 µM	136 to 138 °C			
O=C(CSC(=S)N1CCN(c2ncccc2[N+](=O)[O-])CC1)Nc1ccccc1[N+](=O)[O-] [Compound 5g, 2-((2-Nitrophenyl)amino)-2-oxoethyl 4-(3-nitropyridin-2-yl)piperazine-1-carbodithioate]	16.84 ± 0.12 µM	149 to 151 °C			
O=C(CSC(=S)N1CCN(c2ncccc2[N+](=O)[O-])CC1)Nc1cccc([N+](=O)[O-])c1 [Compound 5h, 2-((3-Nitrophenyl)amino)-2-oxoethyl 4-(3-nitropyridin-2-yl)piperazine-1-carbodithioate]	27 ± 2.15 µM	174 to 175 °C			
O=C(CSC(=S)N1CCN(c2ncccc2[N+](=O)[O-])CC1)Nc1ccc([N+](=O)[O-])cc1 [Compound 5i, 2-((4-Nitrophenyl)amino)-2-oxoethyl 4-(3-nitropyridin-2-yl)piperazine-1-carbodithioate]	45.41 ± 0.23 µM	168 to 169 °C			
Cc1ccccc1NC(=O)CSC(=S)N1CCN(c2ncccc2[N+](=O)[O-])CC1 [Compound 5j, 2-Oxo-2-(o-tolylamino)ethyl 4-(3-nitropyridin-2-yl)piperazine-1-carbodithioate]	5.16 ± 2.68 µM		mixed type of inhibition		
Cc1cccc(NC(=O)CSC(=S)N2CCN(c3ncccc3[N+](=O)[O-])CC2)c1 [Compound 5k, 2-Oxo-2-(m-tolylamino)ethyl 4-(3-nitropyridin-2-yl)piperazine-1-carbodithioate]	18.3 ± 0.17 µM	101 to 103 °C			
Cc1ccc(NC(=O)CSC(=S)N2CCN(c3ncccc3[N+](=O)[O-])CC2)cc1 [Compound 5l, 2-Oxo-2-(p-tolylamino)ethyl 4-(3-nitropyridin-2-yl)piperazine-1-carbodithioate]	10.6 ± 0.36 µM				
COc1ccccc1NC(=O)CSC(=S)N1CCN(c2ncccc2[N+](=O)[O-])CC1 [Compound 5m, 2-((2-Methoxyphenyl)amino)-2-oxoethyl 4-(3-nitropyridin-2-yl)piperazine-1-carbodithioate]	8.17 ± 0.37 µM				
COc1ccc(NC(=O)CSC(=S)N2CCN(c3ncccc3[N+](=O)[O-])CC2)cc1 [Compound 5n, 2-((4-Methoxyphenyl)amino)-2-oxoethyl 4-(3-nitropyridin-2-yl)piperazine-1-carbodithioate]	17.8 ± 0.29 µM	151 to 153 °C			
O=C(Nc1ccccc1)c1ccc(CSC(=S)N2CCN(c3ncccc3[N+](=O)[O-])CC2)cc1 [Compound 7a, 4-(Phenylcarbamoyl)benzyl 4-(3-nitropyridin-2-yl)piperazine-1-carbodithioate]	11.7 ± 0.26 µM	142 to 143 °C			
O=C(Nc1ccccc1Cl)c1ccc(CSC(=S)N2CCN(c3ncccc3[N+](=O)[O-])CC2)cc1 [Compound 7b, 4-((2-Chlorophenyl)carbamoyl)benzyl 4-(3-nitropyridin-2-yl)piperazine-1-carbodithioate]	32.53 ± 0.31 µM	109 to 110 °C			
O=C(Nc1cccc(Cl)c1)c1ccc(CSC(=S)N2CCN(c3ncccc3[N+](=O)[O-])CC2)cc1 [Compound 7c, 4-((3-Chlorophenyl)carbamoyl)benzyl 4-(3-nitropyridin-2-yl)piperazine-1-carbodithioate]	10.8 ± 0.52 µM	140 to 141 °C			
O=C(Nc1ccc(Cl)cc1)c1ccc(CSC(=S)N2CCN(c3ncccc3[N+](=O)[O-])CC2)cc1 [Compound 7d, 4-((4-Chlorophenyl)carbamoyl)benzyl 4-(3-nitropyridin-2-yl)piperazine-1-carbodithioate]	43.11 ± 0.31 µM	147 to 148 °C			
O=C(Nc1cccc(Br)c1)c1ccc(CSC(=S)N2CCN(c3ncccc3[N+](=O)[O-])CC2)cc1 [Compound 7e, 4-((3-Bromophenyl)carbamoyl)benzyl 4-(3-nitropyridin-2-yl)piperazine-1-carbodithioate]	16.5 ± 0.28 µM	141 to 142 °C			
O=C(Nc1ccc(Br)cc1)c1ccc(CSC(=S)N2CCN(c3ncccc3[N+](=O)[O-])CC2)cc1 [Compound 7f, 4-((4-Bromophenyl)carbamoyl)benzyl 4-(3-nitropyridin-2-yl)piperazine-1-carbodithioate]	16.8 ± 0.29 µM	162 to 164 °C			
O=C(Nc1ccccc1[N+](=O)[O-])c1ccc(CSC(=S)N2CCN(c3ncccc3[N+](=O)[O-])CC2)cc1 [Compound 7g, 4-((2-Nitrophenyl)carbamoyl)benzyl 4-(3-nitropyridin-2-yl)piperazine-1-carbodithioate]	56.89 ± 0.31 µM	133 to 134 °C			
O=C(Nc1cccc([N+](=O)[O-])c1)c1ccc(CSC(=S)N2CCN(c3ncccc3[N+](=O)[O-])CC2)cc1 [Compound 7h, 4-((3-Nitrophenyl)carbamoyl)benzyl 4-(3-nitropyridin-2-yl)piperazine-1-carbodithioate]	47.94 ± 0.25 µM	165 to 166 °C			
O=C(Nc1ccc([N+](=O)[O-])cc1)c1ccc(CSC(=S)N2CCN(c3ncccc3[N+](=O)[O-])CC2)cc1 [Compound 7i, 4-((4-Nitrophenyl)carbamoyl)benzyl 4-(3-nitropyridin-2-yl)piperazine-1-carbodithioate]	10.5 ± 0.34 µM				
Cc1ccccc1NC(=O)c1ccc(CSC(=S)N2CCN(c3ncccc3[N+](=O)[O-])CC2)cc1 [Compound 7j, 4-(o-Tolylcarbamoyl)benzyl 4-(3-nitropyridin-2-yl)piperazine-1-carbodithioate]	12.3 ± 0.27 µM	113 to 115 °C			
Cc1cccc(NC(=O)c2ccc(CSC(=S)N3CCN(c4ncccc4[N+](=O)[O-])CC3)cc2)c1 [Compound 7k, 4-(m-Tolylcarbamoyl)benzyl 4-(3-nitropyridin-2-yl)piperazine-1-carbodithioate]	10.7 ± 0.26 µM				
Cc1ccc(NC(=O)c2ccc(CSC(=S)N3CCN(c4ncccc4[N+](=O)[O-])CC3)cc2)cc1 [Compound 7l, 4-(P-tolylcarbamoyl)benzyl 4-(3-nitropyridin-2-yl)piperazine-1-carbodithioate]	37.54 ± 0.26 µM	158 to 160 °C			
COc1ccccc1NC(=O)c1ccc(CSC(=S)N2CCN(c3ncccc3[N+](=O)[O-])CC2)cc1 [Compound 7m, 4-((2-Methoxyphenyl)carbamoyl)benzyl 4-(3-nitropyridin-2-yl)piperazine-1-carbodithioate]	18.7 ± 0.27 µM	166 to 167 °C			
COc1ccc(NC(=O)c2ccc(CSC(=S)N3CCN(c4ncccc4[N+](=O)[O-])CC3)cc2)cc1 [Compound 7n, 4-((4-Methoxyphenyl)carbamoyl)benzyl 4-(3-nitropyridin-2-yl)piperazine-1-carbodithioate]	24 ± 0.27 µM	187 to 189 °C			
CN(Cc1ccccc1)C(=S)SCc1ccccc1 [S-benzyl substituted carbodithioate]				750 ± 40 nM	
NC(N)=S [Thiourea, thiourea, reference compound]					23 ± 0.03 µM
